Results from the supplement of paper PMC10307832.

Experiments:
Test in all cases: relative viability (nuclei count vs DMSO), 5 days (fraction); higher = more cells survive
[1] = compound: Cc1ccc(C(=O)Nc2ccc(CN3CCN(C)CC3)c(C(F)(F)F)c2)cc1C#Cc1cnc2cccnn12 [Ponatinib] + CC(=O)c1c(C)c2cnc(Nc3ccc(N4CCNCC4)cn3)nc2n(C2CCCC2)c1=O [Palbociclib] (partner 0.5 µM)
Summary of the method: (§1)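 Each reported value is a median over duplicate plates. It expresses relative viability: treated-well nuclei count divided by vehicle-well nuclei count. Lung cancer cell lines in 1536-well plates were dosed by pin tool a day after seeding, alone with one drug or with a fixed anchor-drug dose plus five library-drug doses (not always all listed) in √10 steps, and nuclei were counted after 5 days.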

[2] = compound: Cc1ccc(Nc2nccc(N(C)c3ccc4c(C)n(C)nc4c3)n2)cc1S(N)(=O)=O [Pazopanib] + CC(=O)Nc1cccc(-n2c(=O)n(C3CC3)c(=O)c3c(Nc4ccc(I)cc4F)n(C)c(=O)c(C)c32)c1 [Trametinib] (partner 0.02 µM)
Summary of the method: as §1

[3] = compound: Cc1ccc(Nc2nccc(N(C)c3ccc4c(C)n(C)nc4c3)n2)cc1S(N)(=O)=O [Pazopanib] + CC(=O)c1c(C)c2cnc(Nc3ccc(N4CCNCC4)cn3)nc2n(C2CCCC2)c1=O [Palbociclib] (partner 0.5 µM)
Summary of the method: as §1

[4] = compound: Cc1ccc(Nc2nccc(N(C)c3ccc4c(C)n(C)nc4c3)n2)cc1S(N)(=O)=O [Pazopanib] + CS(=O)(=O)N1CCN(Cc2cc3nc(-c4cccc5[nH]ncc45)nc(N4CCOCC4)c3s2)CC1 [Pictilisib] (partner 1 µM)
Summary of the method: as §1

## NCI-H1793
[1]; first compound 0.002 µM
  relative viability: 0.328
[1]; first compound 0.006325 µM
  relative viability: 0.327
[1]; first compound 0.06325 µM
  relative viability: 0.394
[1]; first compound 0.2 µM
  relative viability: 0.413
[2]; first compound 0.03162 µM
  relative viability: 0.425
[2]; first compound 0.1 µM
  relative viability: 0.411
[2]; first compound 0.3162 µM
  relative viability: 0.404
[2]; first compound 1 µM
  relative viability: 0.502
[3]; first compound 0.03162 µM
  relative viability: 0.352
[3]; first compound 0.1 µM
  relative viability: 0.3
[3]; first compound 0.3162 µM
  relative viability: 0.341
[3]; first compound 1 µM
  relative viability: 0.399
[4]; first compound 0.03162 µM
  relative viability: 0.361
[4]; first compound 0.1 µM
  relative viability: 0.355
[4]; first compound 0.3162 µM
  relative viability: 0.392
[4]; first compound 1 µM
  relative viability: 0.36

## NCI-H1915
[1]; first compound 0.002 µM
  relative viability: 0.522
[1]; first compound 0.006325 µM
  relative viability: 0.554
[1]; first compound 0.06325 µM
  relative viability: 0.523
[1]; first compound 0.2 µM
  relative viability: 0.466
[2]; first compound 0.01 µM
  relative viability: 0.294
[2]; first compound 0.03162 µM
  relative viability: 0.312
[2]; first compound 0.1 µM
  relative viability: 0.355
[2]; first compound 0.3162 µM
  relative viability: 0.336
[2]; first compound 1 µM
  relative viability: 0.347
[3]; first compound 0.01 µM
  relative viability: 0.508
[3]; first compound 0.03162 µM
  relative viability: 0.525
[3]; first compound 0.1 µM
  relative viability: 0.524
[3]; first compound 0.3162 µM
  relative viability: 0.541
[3]; first compound 1 µM
  relative viability: 0.536
[4]; first compound 0.01 µM
  relative viability: 0.905
[4]; first compound 0.03162 µM
  relative viability: 0.972
[4]; first compound 0.1 µM
  relative viability: 0.976
[4]; first compound 0.3162 µM
  relative viability: 0.971
[4]; first compound 1 µM
  relative viability: 0.899

## NCI-H1944
[1]; first compound 0.002 µM
  relative viability: 0.331
[1]; first compound 0.006325 µM
  relative viability: 0.392
[1]; first compound 0.06325 µM
  relative viability: 0.435
[1]; first compound 0.2 µM
  relative viability: 0.338
[2]; first compound 0.01 µM
  relative viability: 0.389
[2]; first compound 0.03162 µM
  relative viability: 0.387
[2]; first compound 0.1 µM
  relative viability: 0.407
[2]; first compound 0.3162 µM
  relative viability: 0.453
[2]; first compound 1 µM
  relative viability: 0.433
[3]; first compound 0.01 µM
  relative viability: 0.287
[3]; first compound 0.03162 µM
  relative viability: 0.357
[3]; first compound 0.1 µM
  relative viability: 0.33
[3]; first compound 0.3162 µM
  relative viability: 0.332
[3]; first compound 1 µM
  relative viability: 0.41
[4]; first compound 0.01 µM
  relative viability: 0.303
[4]; first compound 0.03162 µM
  relative viability: 0.346
[4]; first compound 0.1 µM
  relative viability: 0.344
[4]; first compound 0.3162 µM
  relative viability: 0.39
[4]; first compound 1 µM
  relative viability: 0.358

## NCI-H1975
[1]; first compound 0.002 µM
  relative viability: 0.427
[1]; first compound 0.006325 µM
  relative viability: 0.557
[1]; first compound 0.06325 µM
  relative viability: 0.642
[1]; first compound 0.2 µM
  relative viability: 0.537
[2]; first compound 0.01 µM
  relative viability: 0.277
[2]; first compound 0.03162 µM
  relative viability: 0.323
[2]; first compound 0.1 µM
  relative viability: 0.369
[2]; first compound 0.3162 µM
  relative viability: 0.373
[2]; first compound 1 µM
  relative viability: 0.401
[3]; first compound 0.01 µM
  relative viability: 0.531
[3]; first compound 0.03162 µM
  relative viability: 0.552
[3]; first compound 0.1 µM
  relative viability: 0.608
[3]; first compound 0.3162 µM
  relative viability: 0.601
[3]; first compound 1 µM
  relative viability: 0.557
[4]; first compound 0.01 µM
  relative viability: 0.263
[4]; first compound 0.03162 µM
  relative viability: 0.281
[4]; first compound 0.1 µM
  relative viability: 0.316
[4]; first compound 0.3162 µM
  relative viability: 0.309
[4]; first compound 1 µM
  relative viability: 0.338

## NCI-H1993
[1]; first compound 0.002 µM
  relative viability: 0.557
[1]; first compound 0.006325 µM
  relative viability: 0.613
[1]; first compound 0.06325 µM
  relative viability: 0.779
[1]; first compound 0.2 µM
  relative viability: 0.771
[2]; first compound 0.03162 µM
  relative viability: 0.451
[2]; first compound 0.1 µM
  relative viability: 0.576
[2]; first compound 0.3162 µM
  relative viability: 0.438
[2]; first compound 1 µM
  relative viability: 0.512
[3]; first compound 0.03162 µM
  relative viability: 0.617
[3]; first compound 0.1 µM
  relative viability: 0.631
[3]; first compound 0.3162 µM
  relative viability: 0.517
[3]; first compound 1 µM
  relative viability: 0.616
[4]; first compound 0.01 µM
  relative viability: 0.8
[4]; first compound 0.03162 µM
  relative viability: 0.828
[4]; first compound 0.1 µM
  relative viability: 0.709
[4]; first compound 0.3162 µM
  relative viability: 0.801
[4]; first compound 1 µM
  relative viability: 0.789

## NCI-H2009
[1]; first compound 0.002 µM
  relative viability: 0.161
[1]; first compound 0.006325 µM
  relative viability: 0.225
[1]; first compound 0.06325 µM
  relative viability: 0.238
[1]; first compound 0.2 µM
  relative viability: 0.202
[2]; first compound 0.01 µM
  relative viability: 0.277
[2]; first compound 0.03162 µM
  relative viability: 0.25
[2]; first compound 0.1 µM
  relative viability: 0.175
[2]; first compound 0.3162 µM
  relative viability: 0.315
[2]; first compound 1 µM
  relative viability: 0.332
[3]; first compound 0.01 µM
  relative viability: 0.222
[3]; first compound 0.03162 µM
  relative viability: 0.218
[3]; first compound 0.1 µM
  relative viability: 0.185
[3]; first compound 0.3162 µM
  relative viability: 0.271
[3]; first compound 1 µM
  relative viability: 0.258
[4]; first compound 0.01 µM
  relative viability: 0.748
[4]; first compound 0.03162 µM
  relative viability: 0.803
[4]; first compound 0.1 µM
  relative viability: 0.786
[4]; first compound 0.3162 µM
  relative viability: 0.859
[4]; first compound 1 µM
  relative viability: 0.947

## NCI-H2023
[1]; first compound 0.002 µM
  relative viability: 0.447
[1]; first compound 0.006325 µM
  relative viability: 0.456
[1]; first compound 0.06325 µM
  relative viability: 0.402
[1]; first compound 0.2 µM
  relative viability: 0.438
[2]; first compound 0.01 µM
  relative viability: 0.555
[2]; first compound 0.03162 µM
  relative viability: 0.619
[2]; first compound 0.1 µM
  relative viability: 0.615
[2]; first compound 0.3162 µM
  relative viability: 0.574
[2]; first compound 1 µM
  relative viability: 0.491
[3]; first compound 0.01 µM
  relative viability: 0.36
[3]; first compound 0.03162 µM
  relative viability: 0.412
[3]; first compound 0.1 µM
  relative viability: 0.456
[3]; first compound 0.3162 µM
  relative viability: 0.38
[3]; first compound 1 µM
  relative viability: 0.434
[4]; first compound 0.01 µM
  relative viability: 0.173
[4]; first compound 0.03162 µM
  relative viability: 0.202
[4]; first compound 0.1 µM
  relative viability: 0.278
[4]; first compound 0.3162 µM
  relative viability: 0.25
[4]; first compound 1 µM
  relative viability: 0.277

## NCI-H2085
[1]; first compound 0.002 µM
  relative viability: 0.466
[1]; first compound 0.006325 µM
  relative viability: 0.458
[1]; first compound 0.06325 µM
  relative viability: 0.509
[1]; first compound 0.2 µM
  relative viability: 0.509
[2]; first compound 0.01 µM
  relative viability: 0.44
[2]; first compound 0.03162 µM
  relative viability: 0.518
[2]; first compound 0.1 µM
  relative viability: 0.568
[2]; first compound 0.3162 µM
  relative viability: 0.574
[2]; first compound 1 µM
  relative viability: 0.592
[3]; first compound 0.01 µM
  relative viability: 0.483
[3]; first compound 0.03162 µM
  relative viability: 0.462
[3]; first compound 0.1 µM
  relative viability: 0.487
[3]; first compound 0.3162 µM
  relative viability: 0.48
[3]; first compound 1 µM
  relative viability: 0.462
[4]; first compound 0.01 µM
  relative viability: 0.413
[4]; first compound 0.03162 µM
  relative viability: 0.463
[4]; first compound 0.1 µM
  relative viability: 0.47
[4]; first compound 0.3162 µM
  relative viability: 0.429
[4]; first compound 1 µM
  relative viability: 0.443

## NCI-H2087
[1]; first compound 0.002 µM
  relative viability: 0.259
[1]; first compound 0.006325 µM
  relative viability: 0.25
[1]; first compound 0.06325 µM
  relative viability: 0.259
[1]; first compound 0.2 µM
  relative viability: 0.329
[2]; first compound 0.01 µM
  relative viability: 0.223
[2]; first compound 0.03162 µM
  relative viability: 0.261
[2]; first compound 0.1 µM
  relative viability: 0.192
[2]; first compound 0.3162 µM
  relative viability: 0.174
[2]; first compound 1 µM
  relative viability: 0.242
[3]; first compound 0.01 µM
  relative viability: 0.21
[3]; first compound 0.03162 µM
  relative viability: 0.223
[3]; first compound 0.1 µM
  relative viability: 0.275
[3]; first compound 0.3162 µM
  relative viability: 0.271
[3]; first compound 1 µM
  relative viability: 0.256
[4]; first compound 0.01 µM
  relative viability: 0.784
[4]; first compound 0.03162 µM
  relative viability: 0.951
[4]; first compound 0.1 µM
  relative viability: 0.85
[4]; first compound 0.3162 µM
  relative viability: 0.963
[4]; first compound 1 µM
  relative viability: 1.01
